Test results as given in patent US20050256132A1, “Use of ER selective NF-kB inhibitors for the treatment of sepsis” (priority 2003, published 2005).
Values joined by “and” are separate entries in the source; they are usually repeats but may differ in a detail not shown here. Equal entries are not always repeated.

How the values were obtained:
ER/IL-6 = assay: Endothelial Cell ER/IL-6 Assay, IL-6 promoter luciferase (Table 2); format: cell-based, human; details: ERα infected HAECT-1 cells, IL-1β; for IC50: read-out: IL6 luc IC50
Method: T-175 flasks of 100% confluent HAECT-1 cells (immortalized human aortic endothelial cells) were washed with 8 ml of HBSS (HEPES buffered saline solution) and infected for fours hours with 6 ml of a 1:10 dilution of Ad5-wt-hERα virus (an adenovirus transfection vector that mediates CMV promoter driven expression of human ERα) in phenol red free Endothelial Cell Basal medium (Clonetics, San Diego, Calif., Catalog # CC-3129) containing 0.25% bovine serum albumin (EDM-BSA). After four hours, cells were washed with EDM-BSA and incubated overnight in the same medium. Following overnight incubation, cells were washed with EDM-BSA and infected for 2 hours with 6 ml of a 1:10 dilution of Ad5-3x(NFκB).Luc virus (Adenovirus luciferase expression vector driven by three repeats of the MHC NFκb sites 5′ to the thymidine kinase promoter) in EDM-BSA. After two hours, cells were washed and incubated at 34° C. for one hour. Cells were then washed, trypsinized, counted, and resuspended in 95% FBS/5% dimethylsulfoxide at a concentration of […], frozen as 1 or 5 ml aliquots in cryo-vials and stored at −150° C. Control (no ER infection) cells were processed as above without Ad5-wt-hERα virus infection.
ERα infected HAECT-1 cells or control cells were thawed, diluted 42× in warm EBM-BSA, plated into 96-well plates at 0.1 ml/well and incubated for 4 hours at 34° C. Test compounds were added to the cells at 2× stocks in EBM-BSA containing 2 ng/ml IL-1β Ad6-IL-6(1250 bp).Luc virus and plates were returned to the incubator (34° C.). After […], cells were lysed with 50 μl of Promega Cell Culture Lysis reagenet for about 5 minutes at room temperature on a shaker. After lysing, 15 μl of lysate is transferred to luminometer plates for luciferase determination. Luciferase activity is evaluated using a Perkin Elmer Victor2 1420 multilabel counter. Creatine kinase was determined from the rate of increase in A340 following addition of 100 μl of CK assay reagent (Sigma catalog no. 47-10) to the remainder of the cell lysate.
For IC50 and EC50 calculations, mean IL-6, luciferase or CK values versus log10 of the compound concentration were fitted to a four parameter logistic equation. The IC50/EC50 value, ‘Hill slope,’ upper and lower limits of the curve were iteratively estimated.

| Structure (SMILES) | melting point | IC50 (ER/IL-6) [nM] | IL6 luc % Efficacy (ER/IL-6) |
| --- | --- | --- | --- |
| COc1ccccc1[C@H](c1cccc2ccccc12)[C@@](C)(C#N)C(=O)N1CCC(O)(c2ccc(Br)cc2)CC1 | 206 to 208 °C | – | – |
| COc1ccccc1[C@H](c1cccc2ccccc12)[C@@](C)(C#N)C(=O)N1CCN(CC(=O)N2CCOCC2)CC1 | 201 °C | – | – |
| COc1ccccc1[C@H](c1cccc2ccccc12)[C@@](C)(C#N)C(=O)N1CCN(C(=O)c2ccco2)CC1 | 193 °C | – | – |
| COc1ccccc1[C@H](c1cccc2ccccc12)[C@@](C)(C#N)C(=O)N1CCN(CCN2CCOCC2)CC1 | 102 to 103 °C | – | – |
| COc1cc(OC)cc(N2CCN(C(=O)[C@](C)(C#N)[C@H](c3ccccc3OC)c3cccc4ccccc34)CC2)c1 | 186 to 188 °C | – | – |
| COc1ccccc1[C@H](c1cccc2ccccc12)[C@@](C)(C#N)C(=O)N1CCN(c2cccc3c2CCC3)CC1 | 188 to 190 °C | – | – |
| COc1ccccc1[C@H](c1cccc2ccccc12)[C@@](C)(C#N)C(=O)N1CCN(c2ccc(C)c(C)c2)CC1 | 181 to 183 °C | – | – |
| COc1ccccc1[C@H](c1cccc2ccccc12)[C@@](C)(C#N)C(=O)N1CCN(c2cccc(Cl)c2)CC1 | 174 to 176 °C | – | – |
| COc1ccccc1[C@H](c1cccc2ccccc12)[C@@](C)(C#N)C(=O)N1CCN(c2ccc(Cl)cc2)CC1 | 178 to 180 °C | – | – |
| COc1ccccc1[C@H](c1cccc2ccccc12)[C@@](C)(C#N)C(=O)N1CCN(c2cccc3[nH]ccc23)CC1 | 174 to 176 °C | – | – |
| COc1ccccc1[C@H](c1cccc2ccccc12)[C@@](C)(C#N)C(=O)N1CC=C(c2ccc(Cl)cc2)CC1 | 118 to 122 °C | – | – |
| COc1ccccc1[C@H](c1cccc2ccccc12)[C@@](C)(C#N)C(=O)N1CCN(c2ccccc2F)CC1 | 145 to 148 °C | – | – |
| COc1ccccc1[C@H](c1cccc2ccccc12)[C@@](C)(C#N)C(=O)N1CCN(c2ccccc2Cl)CC1 | 145 to 147 °C | – | – |
| COc1cccc(N2CCN(C(=O)[C@](C)(C#N)[C@H](c3ccccc3OC)c3cccc4ccccc34)CC2)c1 | 147 to 148 °C | – | – |
| C[C@@](C#N)(C(=O)O)[C@H](c1ccccc1C(F)(F)F)c1cccc2ccccc12 (racemic) | 220 °C (dec.) | – | – |
| COC[C@@](C#N)(C(=O)N1CCN(CCN2CCOCC2)CC1)[C@@H](c1ccccc1OC)c1cccc2ccccc12 [Example 219, (RR,SS)-2-(methoxymethyl)-3-(2-methoxyphenyl)-2-{[4-(2-morpholin-4-ylethyl)piperazin-1-yl]carbonyl}-3-(1-naphthyl)propanenitrile] | – | 1400 | 74% |
| COC[C@](C#N)(C(=O)N1CCN(C2CCCCC2)CC1)[C@H](c1ccccc1OC)c1cccc2ccccc12 [Example 221, (2S,3S)-3-(4-cyclohexylpiperazin-1-yl)-2-(methoxymethyl)-2-[(2-methoxyphenyl)(1-naphthyl)methyl]-3-oxopropanenitrile] | – | – | 159% and 245% and 174% |

More lines, main results first:

| melting point | IC50 (ER/IL-6) [nM] | Structure (SMILES) | IL6 luc % Efficacy (ER/IL-6) |
| --- | --- | --- | --- |
| 115 to 118 °C | – | CC(C)(C)OC(=O)C(C#N)C(c1ccccc1OC(F)(F)F)c1cccc2ccccc12 (stereo not drawn) | – |
| 124 to 128 °C | – | Cc1cccc(C)c1C(c1cccc2ccccc12)C(C#N)C(=O)OC(C)(C)C (stereo not drawn) | – |
| 186 to 188 °C | – | CCOC(=O)C(C)(C#N)C(c1cccc2ccccc12)c1cccc2ccccc12 (stereo not drawn) | – |
| 104 to 105 °C | – | COc1ccccc1[C@H](c1cccc2ccccc12)[C@@](C)(C#N)C(=O)N1CCN(c2cccc(C)c2)CC1 | – |
| 194 to 195 °C | – | COc1ccccc1[C@H](c1cccc2ccccc12)[C@@](C)(C#N)C(=O)N1CCN(c2cccc(C)c2C)CC1 | – |
| 156 to 157 °C | – | CC(C)(C)OC(=O)C(C#N)C(c1cccc2ccccc12)c1cccc2ccccc12 (stereo not drawn) | – |
| 150 to 153 °C | – | CC(C)(C)OC(=O)[C@@](C)(C#N)[C@H](c1ccccc1OC(F)(F)F)c1cccc2ccccc12 (racemic) | – |
| – | 200 | COCC(C#N)(C(=O)NC(C)(C)C)C(c1ccccc1OC)c1cccc2ccccc12 (stereo not drawn) [Example 180, (RR,SS)-N-(tert-butyl)-2-cyano-2-(methoxymethyl)-3-(2-methoxyphenyl)-3-(1-naphthyl)propanamide] | 119% |
